According to ChEMBL document CHEMBL1148079, “Zarzissine, a new cytotoxic guanidine alkaloid from the Mediterranean sponge Anchinoe paupertas” (J Nat Prod, 1994):
Converted amounts (≈) assume the structure as drawn.

Key:
[1] = tested on: Staphylococcus aureus; assay: Antimicrobial activity against Staphylococcus aureus at 100 ug after 18 hrs by paper disk agar diffusion method; format: functional; conditions: read-out: IZ
[2] = Cytotoxicity against human NSCLC-N6 cells after 72 hrs by MTT assay; format: functional, cell-based; conditions: NSCLC-N6, 72 h
[3] = tested on: P388; assay: Cytotoxicity against mouse P388 cells after 72 hrs by MTT assay; format: functional, cell-based; conditions: P388, 72 h
[4] = tested on: Candida tropicalis; assay: Antimicrobial activity against Candida tropicalis at 100 ug after 18 hrs by paper disk agar diffusion method; format: functional; conditions: read-out: IZ
[5] = tested on: KB; assay: Cytotoxicity against human KB cells after 72 hrs by MTT assay; format: functional, cell-based
[6] = tested on: Candida albicans; assay: Antimicrobial activity against Candida albicans at 100 ug after 18 hrs by paper disk agar diffusion method; format: functional; conditions: read-out: IZ

SMILES	zone of inhibition at 100 µg/disc [1] [mm]	IC50 [2] [µg/mL]	IC50 [3] [µg/mL]	zone of inhibition at 100 µg/disc [4] [mm]	IC50 [5] [µg/mL]	zone of inhibition at 100 µg/disc [6] [mm]
Nc1nc2cnncc2[nH]1	12	10 (≈ 74 µM)	12 (≈ 88.8 µM)	11	5 (≈ 37 µM)	10
O=Cc1ccc(O)cc1 [4-HYDROXYBENZALDEHYDE]	8			7		7
